Literature values in publication PMC5742115, “Pharmacophore Modeling and in Silico/in Vitro Screening for Human Cytochrome P450 11B1 and Cytochrome P450 11B2 Inhibitors” (Frontiers in Chemistry, 2017).
Read-outs that look alike come from different tables or passages of the source.

How the values were obtained:
[1] = system: CYP11B2; settings: reported activity, supplementary Table 1, read-out: CYP11B2 IC50, cited from earlier work
[2] = system: CYP11B1; settings: reported activity, supplementary Table 1, read-out: CYP11B1 IC50, cited from earlier work

In the case of `C(=C1c2ccccc2-c2ccccc21)c1cccnc1` [CHEMBL194928], the IC50 ([1]; ref Ulmschneider et al., 2005a) is listed as 6 nM.

In the case of `Fc1ccc2c(c1)CC/C2=C\c1cncnc1` [CHEMBL195248], the IC50 ([2]; ref Ulmschneider et al., 2005b) is given as 27 nM and the IC50 ([1]; ref Ulmschneider et al., 2005b) is given as 6 nM.

For `COc1ccc2c(c1)CC/C2=C/c1cncs1` [CHEMBL195354], the IC50 ([1]; ref Ulmschneider et al., 2005a) is given as 5 nM.

In the case of `Oc1ccc2cc(-c3cccnc3)ccc2c1` [CHEMBL195571], the IC50 ([1]; ref Voets et al., 2005) is listed as 23 nM.

For `Fc1ccc2c(c1)CC/C2=C\c1cccc2ncccc12` [CHEMBL195580], the IC50 ([1]; ref Ulmschneider et al., 2005a) is given as 14 nM.

In the case of `Fc1ccc2c(c1)CC/C2=C/c1cccc2ncccc12` [CHEMBL195653], the IC50 ([1]; ref Ulmschneider et al., 2005a) is listed as 31 nM.

In the case of `c1ccc2cc(-n3ccnc3)ccc2c1` [CHEMBL195996], the IC50 ([2]; ref Voets et al., 2005) is given as 1320 nM and the IC50 ([1]; ref Voets et al., 2005) is given as 39 nM.

In the case of `COc1ccc2cc(-c3cccnc3)ccc2c1Br` [CHEMBL196328], the IC50 ([2]; ref Voets et al., 2005) is given as 4480 nM and the IC50 ([1]; ref Voets et al., 2005) is given as 33 nM.

For `N#Cc1ccc2cc(-c3cccnc3)ccc2c1` [CHEMBL196796], the IC50 ([2]; ref Voets et al., 2005) is given as 691 nM and the IC50 ([1]; ref Voets et al., 2005) is given as 3 nM.

In the case of `COc1ccc2cc(-c3cccnc3)ccc2c1Cl` [CHEMBL197576], the IC50 ([2]; ref Voets et al., 2005) is given as 2520 nM and the IC50 ([1]; ref Voets et al., 2005) is given as 13 nM.

In the case of `c1cncc(-c2ccc3c4c(cccc24)CC3)c1` [CHEMBL199683], the IC50 ([1]; ref Ulmschneider et al., 2006) is given as 14 nM.

In the case of `c1ccc(-c2nc3ncc[nH]c-3n2)nc1` [CHEMBL201143], the IC50 ([2]; ref Hille et al., 2011a) is listed as 16 nM and the IC50 ([1]; ref Hille et al., 2011a) is listed as 251 nM.

In the case of `COc1ccc2c(c1)C=C(c1cccnc1)CC2` [CHEMBL206273], the IC50 ([1]; ref Voets et al., 2006) is given as 5 nM.

In the case of `O=c1cc(Cn2ccnc2)c2ccc(OCc3ccccc3)cc2o1` [CHEMBL225499], the IC50 ([2]; ref Stefanachi et al., 2011) is listed as 72 nM and the IC50 ([1]; ref Stefanachi et al., 2011) is listed as 289 nM.

In the case of `COc1ccc2c(c1)CC/C2=C\c1ccncc1` [CHEMBL359942], the IC50 ([1]; ref Ulmschneider et al., 2005a) is given as 59 nM.

For `C(=C1/CCCc2ccccc21)/c1ccncc1` [CHEMBL360026], the IC50 ([2]; ref Ulmschneider et al., 2005a) is given as 143 nM and the IC50 ([1]; ref Ulmschneider et al., 2005a) is given as 15 nM.

For `COc1ccc2c(c1)CCC/C2=C\c1cccnc1` [CHEMBL362441], the IC50 ([2]; ref Ulmschneider et al., 2005a) is listed as 903 nM and the IC50 ([1]; ref Ulmschneider et al., 2005a) is listed as 57 nM.

For `C(=C1\CCc2ccccc21)/c1cccnc1` [CHEMBL363621], the IC50 ([2]; ref Ulmschneider et al., 2005b) is listed as 87 nM and the IC50 ([1]; ref Ulmschneider et al., 2005b) is listed as 92 nM.

For `Fc1ccc2c(c1)CC/C2=C/c1cccc2cnccc12` [CHEMBL363849], the IC50 ([2]; ref Ulmschneider et al., 2005b) is listed as 26 nM and the IC50 ([1]; ref Ulmschneider et al., 2005b) is listed as 65 nM.

For `C(=C1/CCc2ccccc21)/c1cccnc1` [CHEMBL364080], the IC50 ([2]; ref Ulmschneider et al., 2005a) is given as 888 nM and the IC50 ([1]; ref Ulmschneider et al., 2005a) is given as 11 nM.

In the case of `COc1ccc2c(c1)/C(=C/c1ccncc1)CC2` [CHEMBL365314], the IC50 ([1]; ref Ulmschneider et al., 2005a) is given as 3 nM.

For `Fc1cccc2c1CC/C2=C\c1cccnc1` [CHEMBL366490], the IC50 ([2]; ref Ulmschneider et al., 2005a) is given as 774 nM and the IC50 ([1]; ref Ulmschneider et al., 2005a) is given as 21 nM.

For `Brc1ccc2c(c1)CC/C2=C\c1ccncc1` [CHEMBL366773], the IC50 ([2]; ref Ulmschneider et al., 2005a) is given as 2640 nM and the IC50 ([1]; ref Ulmschneider et al., 2005a) is given as 24 nM.

In the case of `C(=C1\CCCc2ccccc21)/c1c[nH]cn1` [CHEMBL367719], the IC50 ([2]; ref Ulmschneider et al., 2005b) is listed as 3.3 nM and the IC50 ([1]; ref Ulmschneider et al., 2005b) is listed as 9.6 nM.

In the case of `Clc1cccc2c1CC/C2=C/c1cccnc1` [CHEMBL369623], the IC50 ([2]; ref Ulmschneider et al., 2005a) is listed as 657 nM and the IC50 ([1]; ref Ulmschneider et al., 2005a) is listed as 31 nM.

In the case of `COc1ccc2c(c1)/C(=C\c1ccncc1)CC2` [CHEMBL370281], the IC50 ([1]; ref Ulmschneider et al., 2005a) is given as 26 nM.

For `C(=C(c1ccccc1)c1ccccc1)c1cccnc1` [CHEMBL370317], the IC50 ([1]; ref Ulmschneider et al., 2005a) is given as 9 nM.

For `Fc1ccc2c(c1)CC/C2=C\c1cccc2cnccc12` [CHEMBL370530], the IC50 ([2]; ref Ulmschneider et al., 2005b) is given as 58 nM and the IC50 ([1]; ref Ulmschneider et al., 2005b) is given as 57 nM.

For `Fc1ccc2c(c1)CC/C2=C/c1ccnc2ccccc12` [CHEMBL371275], the IC50 ([1]; ref Ulmschneider et al., 2005a) is given as 14 nM.

For `Fc1ccc2c(c1)CC/C2=C\c1ccnc2ccccc12` [CHEMBL371509], the IC50 ([1]; ref Ulmschneider et al., 2005a) is listed as 20 nM.

For `Cc1ccc2c(c1)/C(=C/c1ccncc1)CC2` [CHEMBL371742], the IC50 ([1]; ref Ulmschneider et al., 2005a) is given as 4 nM.

For `c1cncc(-c2ccc3cccc4c3c2CC4)c1` [CHEMBL372747], the IC50 ([1]; ref Ulmschneider et al., 2006) is given as 10 nM.

In the case of `CC1C/C(=C/c2cccnc2)c2ccccc21` (stereo not drawn) [CHEMBL373074], the IC50 ([1]; ref Ulmschneider et al., 2005a) is listed as 41 nM.

In the case of `COc1ccc2c(Cl)c(-c3cccnc3)ccc2c1Cl` [CHEMBL381014], the IC50 ([2]; ref Voets et al., 2005) is listed as 4900 nM and the IC50 ([1]; ref Voets et al., 2005) is listed as 28 nM.

In the case of `C(=C(c1ccccc1)c1ccccc1)c1ccncc1` [CHEMBL381194], the IC50 ([1]; ref Ulmschneider et al., 2005a) is given as 22 nM.

In the case of `C(=C1c2ccccc2-c2ccccc21)c1ccncc1` [CHEMBL383145], the IC50 ([1]; ref Ulmschneider et al., 2005a) is listed as 5 nM.

For `COc1ccc(Cn2cncc2CCCO)cc1` [CHEMBL597577], the IC50 ([1]; ref Roumen et al., 2010) is given as 59 nM.

In the case of `c1ccc2c(c1)ncn2CC12CC3CC(CC(C3)C1)C2` [CHEMBL1651506], the IC50 ([2]; ref Hille et al., 2011b) is listed as 75 nM.

For `CC(C)C(c1ccc(-c2ccccc2)nc1)n1ccnc1` (stereo not drawn) [CHEMBL2417622], the IC50 ([1]; ref Emmerich et al., 2013) is listed as 28 nM.
